In ChEMBL document CHEMBL3217637, “Temocene: the porphycene analogue of temoporfin (Foscan)” (Medchemcomm, 2011):
Calls of active or inactive are those of the source. The calls are words filed in the database; no cut-off is given here.

Columns and labels:
HeLa [1] = test: Cytotoxicity against human HeLa cells assessed as decrease in cell viability under dark condition after 18 hrs by MTT assay; type: cell-based
[2] = Photostability of the compound in aerated acetone under irradiation at 532 nm laser pulses; type: physicochemical; parameters: dose or concentration left out as unconfirmed
[3] = Cellular uptake in mitochondria of human HeLa cells under prolonged irradiation at 365 nm up to 10 uM after 18 hrs by mitotracker green staining-based fluorescence microscopic analysis; type: ADME
HeLa [4] = test: Phototoxicity against human HeLa cells assessed as decrease in cell viability at < 5 uM preincubated for 18 hrs followed by > 3.5 J/cm'2 of photoirradiation measured after 24 hrs by MTT assay; type: functional, cell-based
[5] = Cellular uptake in cytoplasm of human HeLa cells under ultraviolet irradiation at 365 nm at 1 to 10 uM after 18 hrs by mitotracker green staining-based fluorescence microscopic analysis; type: ADME, cell-based
[6] = Cellular uptake in cytoplasm of human HeLa cells under prolonged irradiation at 365 nm up to 10 uM after 18 hrs by mitotracker green staining-based fluorescence microscopic analysis; type: ADME, cell-based
HeLa [7] = test: Phototoxicity against human HeLa cells assessed as decrease in cell viability at > 5 uM preincubated for 18 hrs followed by 3.5 J/cm'2 of photoirradiation measured after 24 hrs by MTT assay; type: functional, cell-based
[8] = Cellular uptake in mitochondria of human HeLa cells under ultraviolet irradiation at 365 nm at 1 to 10 uM after 18 hrs by mitotracker green staining-based fluorescence microscopic analysis; type: ADME
HeLa [9] = test: Cellular uptake in human HeLa cells under ultraviolet irradiation at 365 nm at 0.5 uM after 18 hrs by mitotracker green staining-based fluorescence microscopic analysis; type: ADME, cell-based

Row | Stability [2] | Drug uptake [3] | Drug uptake [5] | Drug uptake [6] | Drug uptake [8] | Drug uptake (HeLa [9]) | Structure (SMILES) | Activity (HeLa [1]) | Activity (HeLa [4]) | Activity (HeLa [7])
1 | Stable |  |  |  |  |  | Oc1cccc(-c2c3nc(c(-c4cccc(O)c4)c4ccc([nH]4)c(-c4cccc(O)c4)c4nc(c(-c5cccc(O)c5)c5ccc2[nH]5)CC4)C=C3)c1 [TEMOPORFIN] | Toxic |  | 
2 | Stable | Active | Active | Active | Active | Not Active | Oc1cccc(C2=Cc3nc2ccc2[nH]c(cc2-c2cccc(O)c2)c2nc(ccc4[nH]c3cc4-c3cccc(O)c3)C(c3cccc(O)c3)=C2)c1 | Non-toxic | Active | Active
